In patent publication US20250002435A1, “ARYLATED FENCHONE DERIVATIVES, COMPOSITIONS COMPRISING THEM, PROCESSES FOR THEIR PREPARATION AND USES THEREOF” (priority 2021, published 2025):
“Also recorded” adds a separate entry of the source. Like-named read-outs stand apart in the source and are kept apart here.

Legend:
[1] = biological target: T1, hCB2R (Homo sapiens (Human), UniProt P34972); experiment: [35S]GTPγS binding assay, hCB2R CHO cell membranes; type: biochemical; details: for functional activity at hCB2R (agonist / inverse agonist): [35S]GTPγS binding; for EC50: [35S]GTPγS binding to hCB2R, two independent experiments in triplicate; for E(max) %: percentage of HU-308 response at 1 μM
Method: Functional Characterization.
The method used for measuring agonist-stimulated binding of [^35S]GTPγS was based on a described protocol. The assays were carried out with GTPγS assay buffer (50 mM Tris HCl (pH 7.4), 0.2 mM EGTA, 9 mM MgCl2, 150 mM NaCl, 1 mg/ml BSA). Briefly, membranes (5 μg protein) were incubated in assay buffer containing 100 μM GDP, 0.05 nM [^35S]GTPγS, test compounds at various concentrations in siliconized glass tubes. Bound ligand was separated from free ligand by vacuum filtration. Nonspecific binding was determined using 10 μM GTPS. Basal binding was assayed in the absence of the ligand and in the presence of GDP.

[2] = biological target: T1, hCB2R; experiment: [3H]CP-55,940 competition displacement binding, membranes of CHO-K1 cells expressing human CB2R
Method: (§1) Affinity for Cannabinoid Receptors. The compounds were further characterized using a radioligand binding assay to determine their affinities for CB1R and CB2R based on each test compound's ability to displace the radiolabeled CB1R/CB2R agonist CP-55,940 from membranes prepared from a mouse brain (a source of CB1R) and membranes of cells expressing the human CB2R. […] Therefore, the compounds were assayed using membranes from CHO-K1 cells expressing the human CB2R (hCB2R).
(§2) Membranes from cells expressing human CB2R were purchased from Charles River, (Cat #A308; Ohio, US). Solutions of test compounds ranging from 0.1 nM to 10 mM were prepared in DMSO. The desired amount of membrane preparation was diluted with ice-cold assay buffer (50 mM Tris-HCl, 2.5 mM EDTA, 5 mM MgCl2, 0.1% BSA, pH 7.4) and was vortexed. […] The assays were incubated for 90 minutes at 30° C. and then immediately filtered on WHATMAN GF/B FilterPaper (Fired) using a Brandel M-24R Harvester followed by six washes with ice cold wash buffer (50 mM Tris-HCl, 2.5 mM EDTA, 5 mM MgCl2, 0.1% BSA, pH 7.4). Radioactivity was detected by adding the FilterPaper directly to the ULTIMA GOLD scintillation cocktail (PerkinElmer), incubation at 20° C. for 60 min and then counted using a Tri-Carb 4910TR liquid scintillation counter.

[3] = biological target: mCB1R (Mus musculus (Mouse), UniProt P47746); experiment: [3H]CP-55,940 competition displacement binding, crude membranes from mouse brain
Method: as §1, §2

[4] = >10 μM = Displacement of radioactive ligand detected at high concentrations competing ligand, read-out: Ki mCB1R
[5] = displacement of [3H]CP-55,940, NB = No binding detected at concentrations up to 10 μM, read-out: Ki (nM) mCB1R

Sequence of mCB1R (P47746 whole entry): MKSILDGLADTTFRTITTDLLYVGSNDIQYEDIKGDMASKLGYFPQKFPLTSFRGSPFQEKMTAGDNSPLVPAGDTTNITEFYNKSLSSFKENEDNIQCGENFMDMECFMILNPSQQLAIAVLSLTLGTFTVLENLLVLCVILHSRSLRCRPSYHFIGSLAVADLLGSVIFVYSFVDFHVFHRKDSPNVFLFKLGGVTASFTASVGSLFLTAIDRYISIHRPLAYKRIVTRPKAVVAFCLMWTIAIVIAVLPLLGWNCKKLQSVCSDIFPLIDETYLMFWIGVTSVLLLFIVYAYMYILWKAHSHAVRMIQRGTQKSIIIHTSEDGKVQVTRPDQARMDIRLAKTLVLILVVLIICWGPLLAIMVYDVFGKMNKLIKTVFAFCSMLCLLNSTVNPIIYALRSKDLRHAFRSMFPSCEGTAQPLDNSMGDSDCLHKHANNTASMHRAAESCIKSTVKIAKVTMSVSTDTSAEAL
T1 sequence (P34972 whole entry): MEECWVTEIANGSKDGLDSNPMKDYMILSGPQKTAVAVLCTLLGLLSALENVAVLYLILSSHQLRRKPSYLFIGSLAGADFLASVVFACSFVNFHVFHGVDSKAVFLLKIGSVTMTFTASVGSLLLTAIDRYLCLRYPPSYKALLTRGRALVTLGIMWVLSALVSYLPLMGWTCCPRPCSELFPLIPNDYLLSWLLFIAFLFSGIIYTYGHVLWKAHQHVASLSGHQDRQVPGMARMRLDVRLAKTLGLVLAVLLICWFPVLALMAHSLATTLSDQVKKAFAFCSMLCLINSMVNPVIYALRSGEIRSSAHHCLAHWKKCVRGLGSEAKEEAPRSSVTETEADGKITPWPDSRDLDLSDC

SMILES | functional activity at hCB2R (agonist / inverse agonist) [1] | Ki ([2]; displacement of [3H]CP-55,940) | Ki [3, 5] | further results
CCCCCc1cc(OC)c(C2(O)C3(C)CCC(C3)C2(C)C)c(OC)c1 (single isomer, unassigned) [Compound 1a, 2-(2,6′-dimethoxy-4′-pentylphenyl)-1,3,3-trimethylbicyclo[2.2.1]heptan-2-ol] | inverse agonist | 47.7 nM |  | EC50 [1]: 1580 nM; E(max) % [1]: 24.08%; IC50 ([1]; read-out: IC50, reduction of [35S]GTPγS binding in hCB2R membrane): 1580 nM; Ki [3, 4]: > 10000 nM; inhibition of [3H]CP-55,940 binding to mCB1R ([3]; in words): no measurable inhibition
COc1cc(C)cc(OC)c1C1(O)C2(C)CCC(C2)C1(C)C (single isomer, unassigned) [Compound 1e, 2-(2,6′-dimethoxy-4′-methylphenyl)-1,3,3-trimethylbicyclo[2.2.1]-heptan-2-ol] |  |  |  | Ki ([3]; read-out: Ki (nM) mCB1R): > 10000 nM
COc1cc(C)cc(OC)c1C1(O)C2(C)CCC(C2)C1(C)C (single isomer, unassigned) [Compound 1f, 2-(2,6′-dimethoxy-4′-methylphenyl)-1,3,3-trimethylbicyclo[2.2.1]-heptan-2-ol] |  |  | > 10000 nM | Ki [2]: 233 nM
CCCCCCc1ccc(OC)c(C2(O)C3(C)CCC(C3)C2(C)C)c1OC (single isomer, unassigned) [Compound 2a, 2-(3′-hexyl-2,6′-dimethoxyphenyl)-1,3,3-trimethylbicyclo[2.2.1]heptan-2-ol] |  | 224 nM | > 10000 nM | 
CCCCCCc1ccc(OC)c(C2(O)C3(C)CCC(C3)C2(C)C)c1OC (single isomer, unassigned) [Compound 2b, 2-(3′-hexyl-2,6′-dimethoxyphenyl)-1,3,3-trimethylbicyclo[2.2.1]heptan-2-ol] | weakly stimulated; also recorded: agonist | 73.4 nM |  | E(max) % [1]: 46.2%; Ki [3, 4]: > 10000 nM
CCCc1ccc(OC)c(C2(O)C3(C)CCC(C3)C2(C)C)c1 (single isomer, unassigned) [Compound 3a, 2-(2′-methoxy-5′-propylphenyl)-1,3,3-trimethylbicyclo[2.2.1]heptan-2-ol] |  |  |  | Ki ([3]; read-out: Ki (nM) mCB1R): > 10000 nM
CCCc1ccc(OC)c(C2(O)C3(C)CCC(C3)C2(C)C)c1 (single isomer, unassigned) [Compound 3b, 2-(2′-methoxy-5′-propylphenyl)-1,3,3-trimethylbicyclo[2.2.1]heptan-2-ol] |  |  | > 10000 nM | 
CCCCCc1ccc(OC)c(C2(O)C3(C)CCC(C3)C2(C)C)c1 (single isomer, unassigned) [Compound 3c, 2-(2′-methoxy-5′-pentylphenyl)-1,3,3-trimethylbicyclo[2.2.1]heptan-2-ol] |  |  |  | Ki ([3]; read-out: Ki (nM) mCB1R): > 10000 nM
CCCCCc1ccc(OC)c(C2(O)C3(C)CCC(C3)C2(C)C)c1 (single isomer, unassigned) [Compound 3d, 2-(2′-methoxy-5′-pentylphenyl)-1,3,3-trimethylbicyclo[2.2.1]heptan-2-ol] |  |  | > 10000 nM | 
CCC(C)(C)c1ccc(OC)c(C2(O)C3(C)CCC(C3)C2(C)C)c1 (single isomer, unassigned) [Compound 3e, 2-(2′-methoxy-5′-(tert-pentyl)phenyl)-1,3,3-trimethylbicyclo[2.2.1]heptan-2-ol] |  |  |  | Ki ([3]; read-out: Ki (nM) mCB1R): > 10000 nM
CCC(C)(C)c1ccc(OC)c(C2(O)C3(C)CCC(C3)C2(C)C)c1 (single isomer, unassigned) [Compound 3f, 2-(2′-methoxy-5′-(tert-pentyl)phenyl)-1,3,3-trimethylbicyclo[2.2.1]heptan-2-ol] |  |  | > 10000 nM | 
CCCCCCCCc1ccc(OC)c(C2(O)C3(C)CCC(C3)C2(C)C)c1 (single isomer, unassigned) [Compound 3g, 2-(2′-methoxy-5′-octylphenyl)-1,3,3-trimethylbicyclo[2.2.1]heptan-2-ol] |  |  |  | Ki ([3]; read-out: Ki (nM) mCB1R): > 10000 nM
CCCCCCCCc1ccc(OC)c(C2(O)C3(C)CCC(C3)C2(C)C)c1 (single isomer, unassigned) [Compound 3h, 2-(2′-methoxy-5′-octylphenyl)-1,3,3-trimethylbicyclo[2.2.1]heptan-2-ol] |  |  | > 10000 nM | 
CCCCCc1cc(OC)c(C2(O)C3(C)CCC(C3)C2(C)C)c(OC)c1F (single isomer, unassigned) [Compound 4a, 2-(3′-fluoro-2′,6′-dimethoxy-4′-pentylphenyl)-1,3,3-trimethylbicyclo[2.2.1]hept-an-2-ol] |  |  |  | Ki [3, 4]: > 10000 nM
CCCCCc1cc(OC)c(C2(O)C3(C)CCC(C3)C2(C)C)c(OC)c1F (single isomer, unassigned) [Compound 4b, 2-(3′-fluoro-2′,6′-dimethoxy-4′-pentylphenyl)-1,3,3-trimethylbicyclo[2.2.1]hept-an-2-ol] | agonist |  |  | EC50 [1]: 305 nM; Ki [3, 4]: > 10000 nM
CCCCCCC(C)(C)c1cc(OC)c(C2(O)C3(C)CCC(C3)C2(C)C)c(OC)c1F (single isomer, unassigned) [Compound 4c, 2-(3′-fluoro-2,6′-dimethoxy-4′-(2″-methyloctan-2″-yl)phenyl)-1,3,3-trimethyl-bicyclo[2.2.1]heptan-2-ol] |  | 438 nM | > 10000 nM | 
CCCCCCC(C)(C)c1cc(OC)c(C2(O)C3(C)CCC(C3)C2(C)C)c(OC)c1F (single isomer, unassigned) [Compound 4d, 2-(3′-fluoro-2,6′-dimethoxy-4′-(2″-methyloctan-2″-yl)phenyl)-1,3,3-trimethyl-bicyclo[2.2.1]heptan-2-ol] | agonist | 56.6 nM | > 10000 nM | EC50 [1]: 104 nM; E(max) % [1]: 118.7%
CCCCCCC(C)(C)c1cc(OC)c([C@@]2(O)C3(C)CCC(C3)C2(C)C)c(OC)c1 (stereo partly drawn) [Compound 1c, 2-(2,6′-dimethoxy-4′-(2″-methyloctan-2″-yl)phenyl)-1,3,3-trimethyl-bicyclo[2.2.1]heptan-2-ol] | agonist | 56.8 nM | > 10000 nM | EC50 [1]: 121 nM; E(max) % [1]: 87.15%
CCCCCCC(C)(C)c1cc(O)c(C2(O)C3(C)CCC(C3)C2(C)C)c(OC)c1 (stereo not drawn) [Compound 5c, 2-(2′-hydroxy-6′-methoxy-4′-(2″-methyloctan-2″-yl)phenyl)-1,3,3-trimethyl-bicyclo[2.2.1]heptan-2-ol] |  | 107 nM | > 10000 nM | 
CCCCCCC(C)(C)c1cc(OC)c([C@@H]2C=C(CO)[C@@H]3C[C@H]2C3(C)C)c(OC)c1 [HU-308, reference compound] | agonist |  |  | E(max) % [1]: 100%; Ki [3]: > 10000 nM
